{
  "source": "patent US20110256613A1",
  "about": "“Designer proton-channel transgenic algae for photobiological hydrogen production” (priority 2006, published 2011)",
  "key": {"photosystem II (PSII)": {"test_system": "photosystem II (PSII)", "settings": "addition of HCO3− to HCO3−-depleted samples; cited from earlier work"}, "algal system": {"test_system": "algal system", "experiment": "Competitive inhibition of photosynthetic H2 production by CO2", "type": "cell-based", "from_the_text": "(2). Competitive inhibition of photosynthetic H2 production by CO2. […] This inhibition of H2 evolution by CO2 has been characterized in experimental studies at ORNL. […] Therefore, unless the alga is genetically reengineered to control the Calvin cycle activity, photosynthetic H2 production would require a nearly CO2-free environment."}, "algal H2 production": {"test_system": "algal H2 production", "experiment": "Competitive inhibition of photosynthetic H2 production by O2", "type": "cell-based", "from_the_text": "(§1) (4). Competitive drainage of electrons by O2 in algal H2 production. We have recently discovered a new O2 sensitivity in algal H2 production that is distinct from the O2 sensitivity of hydrogenase per se. This O2 sensitivity is apparently linked to the photosynthetic H2 production pathway that is coupled to proton translocation across the thylakoid membrane. […] This inhibition is likely due to the background O2, which apparently serves as a terminal electron acceptor in competition with the H2-production pathway for photosynthetically generated electrons from water splitting. The Rubisco enzyme of the Calvin cycle is known to be also an oxygenase in addition to its carboxylase activity. […] That is, the drainage of electrons by O2 is likely to occur at the point of Rubisco, which is one of the key enzymes of the Calvin cycle. This competitive inhibition of H2 production by O2 is much more of a problem than the traditionally known O2 sensitivity of the hydrogenase per se. […] The competitive inhibition of H2 production by O2 is about 10 times more sensitive to O2 than the traditionally known O2 sensitivity of hydrogenase. The drainage of electrons by O2 in competition with the Fd/hydrogenase H2 production pathway is 10 time more sensitive to O2 than the O2 sensitivity of the hydrogenase. […]"}, "algal hydrogenase": {"test_system": "algal hydrogenase", "experiment": "O2 sensitivity of hydrogenase per se", "type": "biochemical", "from_the_text": "as §1"}, "[1]": {"test_system": "photosystem II (PSII) water-splitting complex in algal cells", "settings": "cited from earlier work"}},
  "data": [
    {"smiles": "O=C(O)O", "note": "[HCO3^−, Bicarbonate]", "values": [
      {"measurement": "stimulation of PSII electron-transport activity", "setting": "photosystem II (PSII)", "value": "6- to 7 fold"}
    ]},
    {"smiles": "O=C=O", "note": "[CO2, carbon dioxide]", "values": [
      {"measurement": "steady-state H2 photoevolution after CO2 injection", "setting": "algal system; injection of 58 ppm CO2", "value": "inhibited to nearly zero"},
      {"measurement": "CO2 concentration to which the algal system is sensitive", "setting": "algal system; lowest concentration, H2 photoevolution", "value": 30, "unit": "ppm"}
    ]},
    {"smiles": "O=O", "note": "[O2]", "values": [
      {"measurement": "O2 concentration that inhibits photosynthetic H2 production", "setting": "algal H2 production; lowest inhibiting concentration", "value": "500-1000 ppm"},
      {"measurement": "O2 sensitivity of competitive inhibition of H2 production relative to O2 sensitivity of hydrogenase", "setting": "algal H2 production; ratio versus hydrogenase O2 sensitivity", "value": "about 10 times"},
      {"measurement": "O2 concentration at which algal hydrogenase is still active", "setting": "algal hydrogenase", "value": 5000, "unit": "ppm"}
    ]},
    {"smiles": "N#CC(C#N)=NNc1cccc(Cl)c1", "note": "[CCCP, carbonyl cyanide m-chlorophenylhydrazone]", "values": [
      {"measurement": "side effects on photosynthetic activity (ADRY effect)", "setting": "[1]", "value": "undesirable side effects"}
    ]}
  ]
}
